Test results: patent US20230192691A1, “HETEROCYCLIC COMPOUNDS AS BTK INHIBITORS” (Beijing InnoCare Pharma Tech Co., Ltd., priority 2020, published 2023)

Key:
[1] = target: T1, human-derived recombinant BTK protein (Homo sapiens, UniProt Q06187); assay: BTK activity inhibition assay (HTRF in vitro kinase assay); assay type: biochemical; details: 40 μM ATP, 0.2 ng/μL BTK
T1 construct: purchased Carna Biosciences 08-180
Procedure: In vitro kinase assay was used to evaluate the effects of compounds of the present invention on BTK activity (Table 1).
(§1) By using the homogeneous time-resolved fluorescence (HTRF) kinase detection kit (Cisbio, catalog number 62TK0PEC), the enzymatic activity of BTK is determined by detecting the phosphorylation level of the substrate in the kinase reaction. The reaction buffer contains the enzyme reaction buffer (1×) from the kit, 5 mM MgCl2, 1 mM DTT, 10 nM SEB and 0.01% Tween-20; the kinase reaction solution contains human-derived recombinant BTK protein (Carna Biosciences, Catalog No. 08-180) diluted to 0.2 ng/μL with the reaction buffer; the substrate reaction solution contains biotin-labeled tyrosine kinase substrate diluted to 0.5 μM with the reaction buffer and 40 μM ATP; the detection buffer contains Eu^3+-labeled cage antibody diluted to 0.05 ng/μL and streptavidin-labeled XL665 antibody diluted to 31.25 nM with the reaction buffer; the test compound is dissolved and diluted to 100 μM with DMSO, followed by a 4-fold serial dilution with DMSO to the lowest concentration of 6.1 nM and finally 40-time dilution with the reaction buffer for each concentration point. If the IC50 value of the compound is very low, the initial concentration of the compound is reduced.
(§2) Add 4 μL test compound solution and 2 μL kinase reaction solution to a 384-well detection plate (Corning, catalog number 3674), mix well and incubate at room temperature for 15 minutes; add 4 μL substrate reaction solution and incubate for 50 minutes; add 10 μL detection buffer, mix well and stand for 60 minutes; detect signal at 620 nm and 665 nm using an Envision plate reader (Perkin Elmer). The signal value (absorbance at 665 nm/absorbance at 620 nm) is positively correlated with the degree of phosphorylation of the substrate, thereby detecting the kinase activity of BTK. In this experiment, the group without BTK is the negative control (100% inhibition) and the group with BTK but no compound is the positive control (0% inhibition). The inhibition curve is plotted and the corresponding IC50 value of the test compound is calculated using XLfit software (ID Business Solutions Ltd., UK).

[2] = target: T2, human recombinant BTK C481S protein (Homo sapiens, UniProt Q06187, C481S); assay: BTK C481S activity inhibition assay (HTRF in vitro kinase assay); assay type: biochemical; details: 35 μM ATP, 1.5 ng/μL BTK C481S
T2 construct: made in house
Procedure: In vitro kinase assay was used to evaluate the effects of compounds of the present invention on BTK C481S activity (Table 1).
as §1, with “BTK C481S” for “BTK”, “nM SEB,” for “nM SEB”, “contains human” for “contains human-derived”, “protein (purified in-house)” for “protein (Carna Biosciences, Catalog No. 08-180)”, “to 1.5” for “to 0.2”, “and 35” for “and 40”
as §2, with “activity of BTK C481S. In this” for “activity of BTK. In this”, “with BTK C481 S but no” for “with BTK but no”, “XLfit software (TD Business Solutions” for “XLfit software (ID Business Solutions”

T1 sequence (Q06187 whole entry): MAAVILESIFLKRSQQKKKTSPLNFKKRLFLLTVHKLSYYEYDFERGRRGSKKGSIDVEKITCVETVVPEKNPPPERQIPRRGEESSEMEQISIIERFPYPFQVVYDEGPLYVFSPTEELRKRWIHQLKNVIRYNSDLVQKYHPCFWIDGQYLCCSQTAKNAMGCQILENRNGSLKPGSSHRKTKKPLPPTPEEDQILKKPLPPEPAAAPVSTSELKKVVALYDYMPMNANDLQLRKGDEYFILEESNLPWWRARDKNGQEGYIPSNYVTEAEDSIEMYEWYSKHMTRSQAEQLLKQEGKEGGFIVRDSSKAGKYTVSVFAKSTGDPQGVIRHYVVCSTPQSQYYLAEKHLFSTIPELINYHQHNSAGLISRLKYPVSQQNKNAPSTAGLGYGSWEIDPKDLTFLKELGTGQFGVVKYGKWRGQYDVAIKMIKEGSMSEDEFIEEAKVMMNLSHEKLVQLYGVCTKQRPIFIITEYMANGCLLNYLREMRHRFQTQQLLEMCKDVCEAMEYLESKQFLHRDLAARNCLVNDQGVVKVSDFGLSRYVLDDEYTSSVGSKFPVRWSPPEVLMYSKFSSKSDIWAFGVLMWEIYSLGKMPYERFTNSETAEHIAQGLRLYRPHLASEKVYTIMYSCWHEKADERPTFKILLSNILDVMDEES
T2 sequence (Q06187 whole entry C481S): as the sequence (Q06187 whole entry) above, with C481S counted along it

Compound	IC50 [1] [nM]	IC50 [2] [nM]
COc1ccc(F)cc1C(=O)NCc1ccc(-c2nc([C@@H]3CCN(C(=O)C4CC4)C3)n3ncnc(N)c23)cc1 [Compound 24, (R)-N-(4-(4-amino-7-(1-(cyclopropanecarbonyl)pyrrolidin-3-yl)imidazo[5,1-f][1,2,4]triazin-5-yl)benzyl)-5-fluoro-2-methoxybenzamide]	3.9	2.5
COc1ccc(F)cc1C(=O)NCc1ccc(-c2nc(C(C)C(F)(F)F)n3ncnc(N)c23)cc1 (centres unmarked) [Compound 26, N-(4-(4-amino-7-(1,1,1-trifluoropropan-2-yl)imidazo[5,1-f][1,2,4]triazin-5-yl)benzyl)-5-fluoro-2-methoxybenzamide]	3.8	11
COc1ccc(F)cc1C(=O)NCc1ccc(-c2nc(N3CCC(C)(C(=O)O)CC3)n3ccnc(N)c23)cc1 [Compound 27, 1-(8-amino-1-(4-((5-fluoro-2-methoxybenzamido)methyl)phenyl)imidazo[1,5-a]pyrazin-3-yl)-4-methylpiperidine-4-carboxylic acid]	2.7	1.3
COc1ccc(F)cc1C(=O)NCc1ccc(-c2nc([C@]3(C)CC[C@@](C)(C(=O)O)CC3)n3ccnc(N)c23)cc1 [Compound 32, (1r,4r)-4-(8-amino-1-(4-((5-fluoro-2-methoxybenzamido)methyl)phenyl)imidazo[1,5-a]pyrazin-3-yl)-1,4-dimethylcyclohexane-1-carboxylic acid]	2.4	6.3
COC(=O)C12CCC(c3nc(-c4ccc(CNC(=O)c5cc(F)ccc5OC)cc4)c4c(N)nccn34)(CC1)C2 [Compound 38, methyl 4-(8-amino-1-(4-((5-fluoro-2-methoxybenzamido)methyl)phenyl)imidazo[1,5-a]pyrazin-3-yl)bicyclo[2.2.1]heptane-1-carboxylate]	2.9	2.1
COc1ccc(F)cc1C(=O)NCc1ccc(-c2nc([C@]3(C)CC[C@](C)(C(=O)OC)CC3)n3ccnc(N)c23)cc1 [Compound 39, methyl (1s,4s)-4-(8-amino-1-(4-((5-fluoro-2-methoxybenzamido)methyl)phenyl)imidazo[1,5-a]pyrazin-3-yl)-1,4-dimethylcyclohexane-1-carboxylate]	3.3	0.6
COc1ccc(F)cc1C(=O)NCc1ccc(-c2nc([C@]3(C)CC[C@](C)(C(=O)O)CC3)n3ccnc(N)c23)cc1 [Compound 41, (1s,4s)-4-(8-amino-1-(4-((5-fluoro-2-methoxybenzamido)methyl)phenyl)imidazo[1,5-a]pyrazin-3-yl)-1,4-dimethylcyclohexane-1-carboxylic acid]	2.6	5.3
COc1ccc(F)cc1C(=O)NCc1ccc(-c2nc(C3(C(F)(F)F)CC3)n3ccnc(N)c23)cc1 [Compound 42, N-(4-(8-amino-3-(1-(trifluoromethyl)cyclopropyl)imidazo[1,5-a]pyrazin-1-yl)benzyl)-5-fluoro-2-methoxybenzamide]	1.7	4.3

The next compounds have a lower IC50 [1] than those just listed; values first:

IC50 [1] [nM]	IC50 [2] [nM]	Compound
1	3	CNC(=O)[C@H]1CC[C@H](c2nc(-c3ccc(CNC(=O)c4cc(F)ccc4OC)cc3)c3c(N)nccn32)CC1 [Compound 23, N-(4-(8-amino-3-((1r,4r)-4-(methylcarbamoyl)cyclohexyl)imidazo[1,5-a]pyrazin-1-yl)benzyl)-5-fluoro-2-methoxybenzamide]
1.1	1.5	[2H]C([2H])([2H])Oc1ccc(F)cc1C(=O)NCc1ccc(-c2nc(C3CCCOC3)n3ccnc(N)c23)cc1 (centres unmarked) [Compound 25, N-(4-(8-amino-3-(tetrahydro-2H-pyran-3-yl)imidazo[1,5-a]pyrazin-1-yl)benzyl)-5-fluoro-2-(methoxy-dz)benzamide]
1	2.2	COC(=O)C12CCC(c3nc(-c4ccc(CNC(=O)c5cc(F)ccc5OC)cc4)c4c(N)ncnn34)(CC1)CC2 [Compound 28, methyl 4-(4-amino-5-(4-((5-fluoro-2-methoxybenzamido)methyl)phenyl)imidazo[5,1-f][1,2,4]triazin-7-yl)bicyclo[2.2.2]octane-1-carboxylate]
1.2	2.1	COC(=O)C12CC(c3nc(-c4ccc(CNC(=O)c5cc(F)ccc5OC)cc4)c4c(N)ncnn34)(C1)C2 [Compound 29, methyl 3-(4-amino-5-(4-((5-fluoro-2-methoxybenzamido)methyl)phenyl)imidazo[5,1-f][1,2,4]triazin-7-yl)bicyclo[1.1.1]pentane-1-carboxylate]
0.6	3	COc1ccc(F)cc1C(=O)NCc1ccc(-c2nc(C34CC(C(=O)O)(C3)C4)n3ncnc(N)c23)cc1 [Compound 31, 3-(4-amino-5-(4-((5-fluoro-2-methoxybenzamido)methyl)phenyl)imidazo[5,1-f][1,2,4]triazin-7-yl)bicyclo[1.1.1]pentane-1-carboxylic acid]
0.8	1.8	COC(=O)C12CCC(c3nc(-c4ccc(CNC(=O)c5cc(F)ccc5OC)cc4)c4c(N)nccn34)(CC1)CC2 [Compound 33, methyl 4-(8-amino-1-(4-((5-fluoro-2-methoxybenzamido)methyl)phenyl)imidazo[1,5-a]pyrazin-3-yl)bicyclo[2.2.2]octane-1-carboxylate]
0.9	1.5	COc1ccc(F)cc1C(=O)NCc1ccc(-c2nc(C34CCC(C(=O)O)(CC3)CC4)n3ccnc(N)c23)cc1 [Compound 34, 4-(8-amino-1-(4-((5-fluoro-2-methoxybenzamido)methyl)phenyl)imidazo[1,5-a]pyrazin-3-yl)bicyclo[2.2.2]octane-1-carboxylic acid]
0.6	1.5	COc1ccc(F)cc1C(=O)NCc1ccc(-c2nc(C34CCC(CO)(CC3)CC4)n3ccnc(N)c23)cc1 [Compound 35, N-(4-(8-amino-3-(4-(hydroxymethyl)bicyclo[2.2.2]octan-1-yl)imidazo[1,5-a]pyrazin-1-yl)benzyl)-5-fluoro-2-methoxybenzamide]
0.9	3.4	CNC(=O)C12CCC(c3nc(-c4ccc(CNC(=O)c5cc(F)ccc5OC)cc4)c4c(N)nccn34)(CC1)CC2 [Compound 36, 4-(8-amino-1-(4-((5-fluoro-2-methoxybenzamido)methyl)phenyl)imidazo[1,5-a]pyrazin-3-yl)-N-methylbicyclo[2.2.2]octane-1-carboxamide]
1.3	1.9	COc1ccc(F)cc1C(=O)NCc1ccc(-c2nc(C34CCC(C(=O)N5CCOCC5)(CC3)CC4)n3ccnc(N)c23)cc1 [Compound 37, N-(4-(8-amino-3-(4-(morpholine-4-carbonyl)bicyclo[2.2.2]octan-1-yl)imidazo[1,5-a]pyrazin-1-yl)benzyl)-5-fluoro-2-methoxybenzamide]
0.4	1.1	COc1ccc(F)cc1C(=O)NCc1ccc(-c2nc(C34CCC(C(=O)O)(CC3)C4)n3ccnc(N)c23)cc1 [Compound 40, 4-(8-amino-1-(4-((5-fluoro-2-methoxybenzamido)methyl)phenyl)imidazo[1,5-a]pyrazin-3-yl)bicyclo[2.2.1]heptane-1-carboxylic acid]
